Source: patent US6417141B1, “Substituted aminouracils” (Bayer Aktiengesellschaft, priority 1995, dated 2002)

How the values were obtained:
Assay type in all cases: in vivo
Conditions in all cases: greenhouse, 125 g/ha a.i., rated after three weeks vs untreated control
Galium [1] = experiment: Post-emergence test
Protocol: (§1) Solvent: 5 parts by weight of acetone
(§2) Emulsifier: 1 part by weight of alkylaryl polyglycol ether
(§3) To produce a suitable preparation of active compound, 1 part by weight of active compound is mixed with the stated amount of solvent, the stated amount of emulsifier is added and the concentrate is diluted with water to the desired concentration.
(§4) Test plants which have a height of 5-15 cm are sprayed with the preparation of the active compound in such a way as to apply the particular amounts of active compound desired per unit area.
(§5) After three weeks, the degree of damage to the plants is rated in % damage by comparison with the development of the untreated control.
(§6) 0%=no effect (like untreated control)

Xanthium [2] = experiment: Post-emergence test
Protocol: as §1, §2, §3, §4, §5, §6

Setaria [3] = experiment: Post-emergence test
Protocol: as §1, §2, §3, §4, §5, §6

Sinapis [4] = experiment: Post-emergence test
Protocol: as §1, §2, §3, §4, §5, §6

Cyperus [5] = experiment: Post-emergence test
Protocol: as §1, §2, §3, §4, §5, §6

Amaranthus [6] = experiment: Post-emergence test
Protocol: as §1, §2, §3, §4, §5, §6

Alopecurus [7] = experiment: Post-emergence test
Protocol: as §1, §2, §3, §4, §5, §6

Avena [8] = experiment: Post-emergence test
Protocol: as §1, §2, §3, §4, §5, §6

Abutilon [9] = experiment: Post-emergence test
Protocol: as §1, §2, §3, §4, §5, §6

Galium [10] = experiment: Pre-emergence test
Protocol: as §1, §2
(§7) To produce a suitable preparation of active compound, 1 part by weight of active compound is mixed with a stated amount of solvent, the stated amount of the emulsifier is added and the concentrate is diluted with water to the desired concentration.
(§8) Seeds of the test plants are sown in normal soil. After about 24 hours, the soil is watered with the preparation of the active compound. It is advantageous to keep the amount of water per unit area constant. The concentration of the active compound in the preparation is immaterial, only the amount of active compound applied per unit area matters.
as §5, §6

Xanthium [11] = experiment: Pre-emergence test
Protocol: as §1, §2, §7, §8, §5, §6

Setaria [12] = experiment: Pre-emergence test
Protocol: as §1, §2, §7, §8, §5, §6

Sinapis [13] = experiment: Pre-emergence test
Protocol: as §1, §2, §7, §8, §5, §6

Cyperus [14] = experiment: Pre-emergence test
Protocol: as §1, §2, §7, §8, §5, §6

Amaranthus [15] = experiment: Pre-emergence test
Protocol: as §1, §2, §7, §8, §5, §6

Alopecurus [16] = experiment: Pre-emergence test
Protocol: as §1, §2, §7, §8, §5, §6

Avena [17] = experiment: Pre-emergence test
Protocol: as §1, §2, §7, §8, §5, §6

Abutilon [18] = experiment: Pre-emergence test
Protocol: as §1, §2, §7, §8, §5, §6

COc1cc(-n2c(=O)cc(C(F)(F)F)n(N)c2=O)c(F)cc1C#N [Example 1, 1-(4-cyano-2-fluoro-5-methoxy-phenyl)-3,6-dihydro-2,6-dioxo-3-amino-4-trifluoromethyl-1(2H)-pyrimidine]
100%: degree of damage to the plants, Galium (Galium [1]) | degree of damage to the plants, Xanthium (Xanthium [2]) | degree of damage to the plants, Setaria (Setaria [3]) | degree of damage to the plants, Sinapis (Sinapis [4]) | degree of damage to the plants, Cyperus (Cyperus [5]) | degree of damage to the plants, Amaranthus (Amaranthus [6]) | degree of damage to the plants, Alopecurus (Alopecurus [7]) | degree of damage to the plants, Avena (Avena [8]) | degree of damage to the plants, Abutilon (Abutilon [9]) | degree of damage to the plants, Galium (Galium [10]) | degree of damage to the plants, Xanthium (Xanthium [11]) | degree of damage to the plants, Setaria (Setaria [12]) | degree of damage to the plants, Sinapis (Sinapis [13]) | degree of damage to the plants, Cyperus (Cyperus [14]) | degree of damage to the plants, Amaranthus (Amaranthus [15]) | degree of damage to the plants, Alopecurus (Alopecurus [16]) | degree of damage to the plants, Avena (Avena [17]) | degree of damage to the plants, Abutilon (Abutilon [18])
